Patent US20250002473A1, “QUINOXALINE DERIVED SULFONAMIDES WITH EGFR DEGRADATION ACTIVITIES AND THEIR USES THEREOF” (Accutar Biotechnology Inc., priority 2023, published 2025)
Read-outs that look alike come from different tables or passages of the source.

How the values were obtained:
Assay type in all cases: cell-based
NCl-H2073 (EGFR_WT) = molecular target: T1, NCl-H2073 (EGFR_WT) (Homo sapiens, UniProt P00533); assay: EGFR degradation assay (western blot), NCl-H2073 cells; details: Table 5; NCI-H2073 cells (EGFR_WT), 24 h
T1 construct: endogenous in cells; host or cells: A431, NCI-H2073, NCI-H292
T1 sequence (P00533 25-1210): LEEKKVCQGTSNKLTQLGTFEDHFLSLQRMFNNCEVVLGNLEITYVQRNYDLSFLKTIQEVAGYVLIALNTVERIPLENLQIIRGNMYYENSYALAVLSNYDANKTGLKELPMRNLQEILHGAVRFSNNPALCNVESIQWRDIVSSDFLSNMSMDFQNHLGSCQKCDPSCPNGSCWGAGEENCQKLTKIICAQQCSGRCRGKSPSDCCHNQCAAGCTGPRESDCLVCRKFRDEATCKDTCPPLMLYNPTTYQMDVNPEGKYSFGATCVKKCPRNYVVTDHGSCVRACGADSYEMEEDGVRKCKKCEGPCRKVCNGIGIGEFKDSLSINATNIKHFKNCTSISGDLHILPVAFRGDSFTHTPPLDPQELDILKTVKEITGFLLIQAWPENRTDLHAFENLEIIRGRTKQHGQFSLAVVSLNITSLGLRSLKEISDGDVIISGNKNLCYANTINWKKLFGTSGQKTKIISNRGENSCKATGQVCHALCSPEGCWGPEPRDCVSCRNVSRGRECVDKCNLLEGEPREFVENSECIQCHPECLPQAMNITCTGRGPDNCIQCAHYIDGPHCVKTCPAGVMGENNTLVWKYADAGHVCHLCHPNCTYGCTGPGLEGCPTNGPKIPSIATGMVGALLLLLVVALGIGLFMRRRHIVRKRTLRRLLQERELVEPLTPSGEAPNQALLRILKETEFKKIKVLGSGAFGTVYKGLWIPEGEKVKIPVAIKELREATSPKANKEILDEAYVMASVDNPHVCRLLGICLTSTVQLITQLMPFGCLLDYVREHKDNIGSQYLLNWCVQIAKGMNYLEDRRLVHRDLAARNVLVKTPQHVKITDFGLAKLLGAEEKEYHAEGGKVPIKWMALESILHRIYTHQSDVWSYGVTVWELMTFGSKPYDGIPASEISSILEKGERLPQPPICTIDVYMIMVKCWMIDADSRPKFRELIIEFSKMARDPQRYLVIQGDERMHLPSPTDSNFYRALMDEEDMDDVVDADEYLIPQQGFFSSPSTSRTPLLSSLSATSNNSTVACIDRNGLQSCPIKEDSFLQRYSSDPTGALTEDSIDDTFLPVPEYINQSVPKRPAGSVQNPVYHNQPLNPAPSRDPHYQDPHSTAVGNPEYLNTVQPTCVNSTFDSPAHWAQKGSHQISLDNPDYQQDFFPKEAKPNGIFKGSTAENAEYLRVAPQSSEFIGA
Protocol: A431 (EGFR_WT), NCl-H2073 (EGFR_WT), NCl-H292 (EGFR_WT), BaF3_YVAM (Her2_A775insYVAM), BaF3_SVD (EGFR_D770insSVD), BaF3_ASV (EGFR_A776inASV), or BaF3_DTC (EGFR_Exon19del/T790M/C797S) cells were seeded in a 24-well plate at a density of 4×10^5 cells per well for EGFR WT cells and 8× cells per well for EGFR or Her2 mutant cells, and the plates were incubated overnight. The cells were treated with the desired compounds for 24 h. The culture medium was removed, and 100 μL of RIPA buffer (Beyotime, P0013B) containing 1% Protease Inhibitor Cocktail (Bimake, B14001), 1% Phosphatase Inhibitor Cocktail 2 (Sigma, P5726), and 1% Phosphatase Inhibitor Cocktail 3 (Sigma, P0044) were added to lyse the cells. Then, the cell lysates were transferred to 1.5 mL microcentrifuge tubes and centrifuged at 12,000 rpm and 4° C. for 30 min. The supernatants were transferred into new tubes, and the protein concentration was determined using the BCA protein quantification method. All samples were diluted to the same concentration using RIPA buffer, loading buffer was added, samples were denatured, and 15 μg of protein per lane was loaded onto a SurePAGE 4-20% Bis-Tris gel. Samples were separated via electrophoresis in MOPS running buffer at 180 V for 100 min. […] Fluorescence was detected using the Odyssey CLx Imaging System, and the data were analyzed with Empiria Studio Software and GraphPad Prism 9. […]

[1] = molecular target: T2, BaF3_ASV (EGFR_A776inASV) (Homo sapiens, UniProt P00533, DUP767-769); assay: EGFR degradation assay (western blot), BaF3_ASV cells; details: for DC50: BaF3_ASV cells
T2 construct: expressed in transfected cells; host or cells: Ba/F3 (engineered)
T2 sequence (P00533 with tags, fused parts or gaps DUP767-769): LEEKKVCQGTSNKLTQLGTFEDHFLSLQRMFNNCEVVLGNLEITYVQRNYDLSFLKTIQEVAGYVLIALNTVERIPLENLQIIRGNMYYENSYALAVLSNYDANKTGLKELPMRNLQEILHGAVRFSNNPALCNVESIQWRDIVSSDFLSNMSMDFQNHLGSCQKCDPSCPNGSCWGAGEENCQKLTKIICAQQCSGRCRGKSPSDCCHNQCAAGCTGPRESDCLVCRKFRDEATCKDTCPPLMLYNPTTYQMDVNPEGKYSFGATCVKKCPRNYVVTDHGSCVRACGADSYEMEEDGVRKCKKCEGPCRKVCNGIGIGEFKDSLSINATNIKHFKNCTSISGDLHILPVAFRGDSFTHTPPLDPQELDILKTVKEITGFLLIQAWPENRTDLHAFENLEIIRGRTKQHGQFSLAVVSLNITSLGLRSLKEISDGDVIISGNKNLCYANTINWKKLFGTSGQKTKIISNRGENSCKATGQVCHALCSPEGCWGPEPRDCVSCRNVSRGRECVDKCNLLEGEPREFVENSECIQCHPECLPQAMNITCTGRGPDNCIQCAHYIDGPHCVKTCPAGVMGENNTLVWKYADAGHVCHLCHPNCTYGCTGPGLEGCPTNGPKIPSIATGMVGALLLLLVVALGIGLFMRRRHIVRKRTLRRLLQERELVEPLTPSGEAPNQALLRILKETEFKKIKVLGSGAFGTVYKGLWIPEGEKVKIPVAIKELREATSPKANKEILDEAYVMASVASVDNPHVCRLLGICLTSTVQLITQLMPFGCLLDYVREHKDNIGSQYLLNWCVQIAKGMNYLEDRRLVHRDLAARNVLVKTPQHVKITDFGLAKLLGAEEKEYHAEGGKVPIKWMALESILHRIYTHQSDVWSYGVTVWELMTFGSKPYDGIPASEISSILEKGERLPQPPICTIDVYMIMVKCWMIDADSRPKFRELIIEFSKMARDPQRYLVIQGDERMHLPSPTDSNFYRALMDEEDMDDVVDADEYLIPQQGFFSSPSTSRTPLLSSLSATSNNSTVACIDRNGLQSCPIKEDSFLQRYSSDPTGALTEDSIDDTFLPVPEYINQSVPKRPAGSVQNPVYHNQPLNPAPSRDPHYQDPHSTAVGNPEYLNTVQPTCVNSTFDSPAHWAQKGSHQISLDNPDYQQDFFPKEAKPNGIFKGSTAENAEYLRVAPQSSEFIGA
In short: (§1)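 Cells seeded overnight, then exposed to compounds for 24 h; lysates run on western blot, EGFR probed with tubulin loading control and fluorescent secondary detection. DC50 = concentration giving 50% EGFR degradation.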

BaF3_SVD = assay: Cell growth inhibition assay (CellTiter-Glo), BaF3_SVD
Protocol: (§2) Cells were seeded in a 96-well plate (Corning 3610) with 90 μL of culture medium per well, and plates were incubated at 37° C. overnight. A 1,000× DMSO stock solution of the desired compound was prepared the following day. A compound dilution plate was prepared by diluting the stock solution 1:100 in the corresponding cell culture medium, 10 μL of the diluted compound solution was added to each 96-well plate well containing the seeded cells. Then, the cells were cultured at 37° C. for three days following compound treatment, 100 μL of CellTiter-Glo reagents (Promega G7573) was added to each well of the 96-well plate. The content of the wells was mixed by shaking continuously for 10 min, and luminescence was measured using Envision (PerkinElmer). The data were analyzed with GraphPad Prism 9 (see FIG. 50).
(§3) Table 6, Table 7, and Table 8 list the cell growth inhibition results, where Gls0 represents the compound concentration to cause 50% cell growth inhibition in comparison with DMSO.

BaF3_DTC = assay: Cell growth inhibition assay (CellTiter-Glo), BaF3_DTC
A431 = assay: Cell growth inhibition assay (CellTiter-Glo), A431; details: Homo sapiens, A431 cells
In short: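 This growth inhibition assay reports GI50, the compound concentration producing 50% inhibition of cell growth relative to DMSO. Seeded cells (90 μL medium per well, 96-well Corning 3610 plates, overnight at 37° C.) received 10 μL of compound diluted 1:100 from a 1,000× DMSO stock. Luminescence was measured on Envision (PerkinElmer) and analyzed in GraphPad Prism 9.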

A431 (EGFR_WT) = molecular target: T3, A431 (EGFR_WT) (Homo sapiens, UniProt P00533); assay: EGFR degradation assay (western blot), A431 cells
T3 construct: endogenous in cells; host or cells: A431, NCI-H2073, NCI-H292
T3 sequence (P00533 25-1210): as the sequence (P00533 25-1210) above
In short: as §1

[2] = molecular target: T4, BaF3_YVAM (Her2_A775insYVAM) (Homo sapiens, UniProt P04626, INS775YVMA); assay: EGFR degradation assay (western blot), BaF3_YVAM cells
T4 construct: expressed in transfected cells; host or cells: Ba/F3 (engineered)
T4 sequence (P04626 with tags, fused parts or gaps INS775YVMA): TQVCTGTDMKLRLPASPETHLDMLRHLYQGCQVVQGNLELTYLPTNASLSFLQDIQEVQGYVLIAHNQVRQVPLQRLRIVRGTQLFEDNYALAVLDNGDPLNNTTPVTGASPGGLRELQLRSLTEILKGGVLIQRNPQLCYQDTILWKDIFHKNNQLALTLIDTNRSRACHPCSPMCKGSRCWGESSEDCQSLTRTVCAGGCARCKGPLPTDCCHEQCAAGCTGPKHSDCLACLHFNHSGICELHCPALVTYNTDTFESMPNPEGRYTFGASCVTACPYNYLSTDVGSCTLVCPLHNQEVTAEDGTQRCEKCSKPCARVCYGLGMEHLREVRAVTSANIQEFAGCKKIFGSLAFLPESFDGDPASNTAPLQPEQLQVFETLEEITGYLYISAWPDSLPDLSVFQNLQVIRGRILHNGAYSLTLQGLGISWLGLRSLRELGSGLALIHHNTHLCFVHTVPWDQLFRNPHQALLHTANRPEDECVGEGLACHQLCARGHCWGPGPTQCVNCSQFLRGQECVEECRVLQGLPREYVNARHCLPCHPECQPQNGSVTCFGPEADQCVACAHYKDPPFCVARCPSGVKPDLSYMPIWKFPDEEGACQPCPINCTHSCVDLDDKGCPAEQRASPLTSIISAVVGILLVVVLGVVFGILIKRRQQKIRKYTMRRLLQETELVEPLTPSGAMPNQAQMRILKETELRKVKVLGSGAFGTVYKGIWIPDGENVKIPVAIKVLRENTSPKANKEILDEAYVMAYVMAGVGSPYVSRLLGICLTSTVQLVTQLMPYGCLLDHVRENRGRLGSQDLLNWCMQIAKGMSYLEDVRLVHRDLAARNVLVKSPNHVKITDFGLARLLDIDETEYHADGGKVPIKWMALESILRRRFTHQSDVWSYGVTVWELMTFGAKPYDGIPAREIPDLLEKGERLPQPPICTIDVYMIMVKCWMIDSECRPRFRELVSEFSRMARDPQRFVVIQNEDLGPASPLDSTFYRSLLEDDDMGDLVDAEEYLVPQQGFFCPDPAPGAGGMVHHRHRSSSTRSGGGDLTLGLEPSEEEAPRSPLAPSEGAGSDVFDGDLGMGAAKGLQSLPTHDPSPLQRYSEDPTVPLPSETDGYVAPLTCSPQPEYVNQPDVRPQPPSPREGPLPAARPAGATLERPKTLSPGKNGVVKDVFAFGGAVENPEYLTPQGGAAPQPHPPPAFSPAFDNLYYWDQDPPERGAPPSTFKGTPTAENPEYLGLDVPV
Protocol: A431 (EGFR_WT), NCl-H2073 (EGFR_WT), NCl-H292 (EGFR_WT), BaF3_YVAM (Her2_A775insYVAM), BaF3_SVD (EGFR_D770insSVD), BaF3_ASV (EGFR_A776inASV), or BaF3_DTC (EGFR_Exon19del/T790M/C797S) cells were seeded in a 24-well plate at a density of 4×10^5 cells per well for EGFR WT cells and 8× cells per well for EGFR or Her2 mutant cells, and the plates were incubated overnight. The cells were treated with the desired compounds for 24 h. The culture medium was removed, and 100 μL of RIPA buffer (Beyotime, P0013B) containing 1% Protease Inhibitor Cocktail (Bimake, B14001), 1% Phosphatase Inhibitor Cocktail 2 (Sigma, P5726), and 1% Phosphatase Inhibitor Cocktail 3 (Sigma, P0044) were added to lyse the cells. Then, the cell lysates were transferred to 1.5 mL microcentrifuge tubes and centrifuged at 12,000 rpm and 4° C. for 30 min. The supernatants were transferred into new tubes, and the protein concentration was determined using the BCA protein quantification method. All samples were diluted to the same concentration using RIPA buffer, loading buffer was added, samples were denatured, and 15 μg of protein per lane was loaded onto a SurePAGE 4-20% Bis-Tris gel. Samples were separated via electrophoresis in MOPS running buffer at 180 V for 100 min. Then, proteins were transferred onto PVDF membranes using the MiniBlot™ Electrophoretic Transfer Cell Device (Beyotime, E6050). The membrane was blocked using block buffer (LI-COR 927-60001) to prevent non-specific binding. The membrane was incubated with primary antibodies (1:500 dilution, EGFR-CST4405, 1:2000 dilution, Tubulin-ABclonal #AC021) at 4° C. overnight. The membrane was washed three times with 1× TBST buffer for 15 min each. The membrane was incubated with secondary antibodies IRDye 680RD Goat anti-Rabbit IgG Secondary Antibody (1:2000 dilution, LI-COR 926-68071) and IRDye 800CW Goat anti-Mouse IgG Secondary Antibody (1:2000 dilution, LI-COR 926-32210). […] Fluorescence was detected using the Odyssey CLx Imaging System, and the data were analyzed with Empiria Studio Software and GraphPad Prism 9. […]

NCI-H292 = assay: Cell growth inhibition assay (CellTiter-Glo), NCI-H292; details: Homo sapiens; Table 7; NCI-H292 cells; head prints 24 h
Protocol: as §2, with “Then, the cells were cultured at 37° C. for three days following compound treatment, 100 μL of CellTiter-Glo reagents (Promega G7573) was added to each well of the 96-well plate.” left out
as §3

BaF3_ASV = assay: Cell growth inhibition assay (CellTiter-Glo), BaF3_ASV; details: for GI50: BaF3_ASV cells
[3] = BaF3_ASV, comparison with Compound A, in words

CCc1cc(Nc2ncc(Br)c(Nc3ccc4nccnc4c3NS(C)(=O)=O)n2)c(OC)cc1N1CCC(N2CCN(CCc3cccc4c3n(CC)c(=O)n4C3CCC(=O)NC3=O)CC2)CC1 (stereo not drawn) [Compound 11, N-(6-((5-bromo-2-((4-(4-(4-(2-(1-(2,6-dioxopiperidin-3-yl)-3-ethyl-2-oxo-2,3-dihydro-1H-benzo[d]imidazol-4-yl)ethyl)piperazin-1-yl)piperidin-1-yl)-5-ethyl-2-methoxyphenyl)amino)pyrimidin-4-yl)amino)quinoxalin-5-yl)methanesulfonamide]
DC50 (NCl-H2073 (EGFR_WT)): > 1000 nM | DC50 ([1]; compounds 24 h, western blot, read-out: BaF3_ASV DC50): 22.4 nM | Potency in degrading EGFR exon20 insertion mutant form compared with Compound A (BaF3_ASV) [1, 3]: significantly increased potency | DC50 ([1]; Table 5, 24 h, read-out: DC50 (nM), 24 h, BaF3_ASV): 22.4 nM | Potency in cell growth inhibition compared with Compound A (BaF3_SVD) (BaF3_SVD; BaF3_SVD, comparison with Compound A, in words): significantly increased potency | GI50 (BaF3_SVD; Table 7, BaF3_SVD cells): 106 nM | GI50 (BaF3_DTC; 72 h, Table 6, BaF3_DTC cells, three days, CellTiter-Glo, read-out: BaF3_DTC GI50): 6.37 nM | GI50 (BaF3_DTC; Table 7, BaF3_Del19/T790M/C797S cells, head prints 24 h, read-out: GI50 (nM), 24 h, BaF3_Del19/T790M/C797S): 6.37 nM | GI50 (A431; A-431, 24 h, Table 7, head prints 24 h, read-out: GI50 (nM), 24 h, A431): 2500 nM | GI50 (A431; A-431, 72 h, Table 6, three days, CellTiter-Glo, read-out: A431 GI50): > 1000 nM | DC50 (A431 (EGFR_WT); Table 5, 24 h, read-out: DC50 (nM), 24 h, A431): > 1000 nM | DC50 (A431 (EGFR_WT); compounds 24 h, western blot, read-out: A431 DC50): > 1000 nM | Potency in degrading Her2 mutant form compared with Compound A (BaF3_YVMA) ([2]; BaF3_YVMA, comparison with Compound A, in words): significantly increased potency | DC50 ([2]; Table 5, BaF3_YVMA cells (mutant Her2), 24 h): 33.3 nM | GI50 (NCI-H292): 436 nM | GI50 (BaF3_ASV; 72 h, Table 6, three days, CellTiter-Glo, read-out: BaF3_ASV GI50): 75.2 nM | Potency in cell growth inhibition compared with Compound A (BaF3_ASV) (BaF3_ASV; [3]): significantly increased potency | GI50 (BaF3_ASV; Table 7, head prints 24 h, read-out: GI50 (nM), 24 h, BaF3_ASV): 75.2 nM
